Assay results published in ChEMBL document CHEMBL5325479, “Synthesis and biological evaluation of sulfonylpyridine derivatives as potential anti-chlamydia agents” (Bioorg Med Chem, 2023).
In brackets after ≈: the same amount, converted by molar mass. Activity calls are given as the source filed them. No cut-off for these calls is given here.

Assays:
Chlamydia trachomatis [1] = experiment: Anti-chlamydia activity against Chlamydia trachomatis serovar L2 infected in human HEp-2 cells assessed as inhibition of inclusion growth measured at 0.78 to 50 ug/ml treated 8 hrs POI followed measured after 16 hrs by immunofluorescence assay; assay type: functional, organism-based; conditions: dose 0.78-50 µg/ml
Chlamydia trachomatis [2] = experiment: Anti-chlamydia activity against Chlamydia trachomatis serovar L2 infected in human HEp-2 cells assessed as inhibition of inclusion growth measured treated 8 hrs POI followed measured after 16 hrs by immunofluorescence assay; assay type: functional, organism-based; conditions: serovar L2, HEp-2
HEp-2 = experiment: Cytotoxicity against human HEp-2 cells assessed as cell viability at 4 to 128 ug/ml measured after 24 hrs by XTT assay; assay type: toxicity, cell-based; conditions: hep-2, 24 h, dose 4-128 µg/ml
[3] = Cytotoxicity against human HEC-1-A cells assessed as cell survival at 128 ug/ml measured after 24 hrs by XTT assay; assay type: toxicity, cell-based; conditions: at 128 µg/mL, read-out: Survival
[4] = Stability of the compound in simulated gastric fluid at pH 1.2 measured after 24 hrs by HPLC analysis; assay type: ADME; conditions: simulated gi fluid, pH 1.2, 24 h
Staphylococcus aureus = experiment: Antibacterial activity against Staphylococcus aureus USA 300 JE2 assessed as bacterial death measured upto 256 ug/ml; assay type: functional, organism-based; conditions: dose <= 256.0 µg/ml
Escherichia coli = experiment: Antibacterial activity against Escherichia coli K12 assessed as bacterial death measured upto 256 ug/ml; assay type: functional, organism-based; conditions: dose <= 256.0 µg/ml

SMILES	IC50 (Chlamydia trachomatis [2]) [µg/mL]	other results
CC(C)(C(=O)NCCc1ccncc1)S(=O)(=O)c1ccc(C(F)(F)F)cn1	–	inhibition (Chlamydia trachomatis [1]): inactive
Cc1ccc(OCCNC(=O)C(C)(C)S(=O)(=O)c2ccc(C(F)(F)F)cn2)cc1	29.8 (≈ 69.3 µM)	–
COc1ccccc1OCCCNC(=O)C(C)(C)S(=O)(=O)c1ccc(C(F)(F)F)cn1	–	inhibition (Chlamydia trachomatis [1]): inactive
CC(C)(C(=O)NCCCSc1cccc(Cl)c1)S(=O)(=O)c1ccc(C(F)(F)F)cn1	14.8 (≈ 30.7 µM)	–
Cc1ccccc1OCCCNC(=O)C(C)(C)S(=O)(=O)c1ccc(Br)cn1	3.47 (≈ 7.62 µM)	–
Cc1ccccc1OCCNC(=O)C(C)(C)S(=O)(=O)c1ccc(C(F)(F)F)cn1	28.9 (≈ 67.2 µM)	–
Cc1ccccc1OCCNC(=O)C(C)(C)S(=O)(=O)c1ccc(Br)cn1	18.3 (≈ 41.5 µM)	–
CN(CCSc1ccc(Cl)cc1)C(=O)C(C)(C)S(=O)(=O)c1ccc(C(F)(F)F)cn1	–	inhibition (Chlamydia trachomatis [1]): inactive
CC(C)(C(=O)NCCNc1ccccc1)S(=O)(=O)c1ccc(Br)cn1	11.7 (≈ 27.3 µM)	–
CC(C)(C(=O)NCCNc1ccccc1)S(=O)(=O)c1ccc(C(F)(F)F)cn1	14.2 (≈ 34.3 µM)	–
CC(C)(C(=O)NCCCSc1ccc(Cl)cc1)S(=O)(=O)c1ccc(C(F)(F)F)cn1	3.88 (≈ 8.07 µM)	–
COc1ccc(OCCNC(=O)C(C)(C)S(=O)(=O)c2ccc(C(F)(F)F)cn2)cc1	42.2 (≈ 94.4 µM)	–
Cc1ccc(SCCNC(=O)C(C)(C)S(=O)(=O)c2ccc(C(F)(F)F)cn2)cc1	23.5 (≈ 52.6 µM)	–
COc1ccccc1OCCNC(=O)C(C)(C)S(=O)(=O)c1ccc(C(F)(F)F)cn1	39.8 (≈ 89.2 µM)	–
CC(C)(C(=O)NCCSc1cccc(Cl)c1)S(=O)(=O)c1ccc(C(F)(F)F)cn1	17.9 (≈ 38.3 µM)	–
CC(C)(C(=O)NCCCOc1ccc(Cl)cc1)S(=O)(=O)c1ccc(C(F)(F)F)cn1	26.1 (≈ 56.2 µM)	–
Cc1ccccc1SCCNC(=O)C(C)(C)S(=O)(=O)c1ccc(C(F)(F)F)cn1	17.8 (≈ 39.8 µM)	–
Cc1ccc(SCCCNC(=O)C(C)(C)S(=O)(=O)c2ccc(Br)cn2)cc1	16.1 (≈ 34.2 µM)	–
Cc1ccccc1SCCCNC(=O)C(C)(C)S(=O)(=O)c1ccc(C(F)(F)F)cn1	32.5 (≈ 70.7 µM)	–
CC(C)(C(=O)NCCCSc1ccccc1)S(=O)(=O)c1ccc(C(F)(F)F)cn1	31.4 (≈ 70.3 µM)	–
CC(C)(C(=O)NCCOc1ccc([N+](=O)[O-])cc1)S(=O)(=O)c1ccc(C(F)(F)F)cn1	–	inhibition (Chlamydia trachomatis [1]): inactive
Cc1ccc(OCCNC(=O)C(C)(C)S(=O)(=O)c2ccc(Br)cn2)cc1	–	inhibition (Chlamydia trachomatis [1]): inactive
CC(C)(C(=O)NCCCC1=NC2C=CC=CC2=N1)S(=O)(=O)c1ccc(C(F)(F)F)cn1 (stereo unspecified)	–	inhibition (Chlamydia trachomatis [1]): inactive
Cc1ccccc1OCCCNC(=O)C(C)(C)S(=O)(=O)c1ccc(C(F)(F)F)cn1	20.4 (≈ 46 µM)	–
CC(C)(C(=O)NCCCSc1ccc(Cl)cc1)S(=O)(=O)c1ccc(Br)cn1	2.33 (≈ 4.74 µM)	Activity (HEp-2): Toxic; viability at 24 h, 128 ug/ml [3]: 100%; Stability [4]: Stable; Activity (Staphylococcus aureus): inactive; Activity (Escherichia coli): inactive
CC(=O)N(CCNC(=O)C(C)(C)S(=O)(=O)c1ccc(C(F)(F)F)cn1)c1ccccc1	–	inhibition (Chlamydia trachomatis [1]): inactive
